{"source": "patent US6433019B1", "about": "“Neurotrophic factor secretion promoters” (Sumitomo Pharmaceuticals Company, Limited, priority 1998, dated 2002)", "key": {"[1]": {"system": "cultured brain neural cells", "test": "Growth of cultured neural cells (cytotoxicity)", "format": "cell-based, rat", "conditions": "high dose (1000 μM)"}, "BDNF-trkB complex": {"system": "BDNF-trkB complex", "test": "BDNF release: sandwich immunoassay of BDNF-trkB complex on the cell surface", "format": "cell-based, rat", "conditions": "FIG. 3B", "description": "The effects of an NO donor on the BDNF release were studied in order to clarify the inhibitory effects of SNAP at a high dose on the BDNF protein accumulation. First, the measurement of BDNF concentration in the culture supernatant was tried, but the concentration of BDNF therein was below a detection limitation value of an ordinary EIA, which was considered that the released BDNF immediately combines with the cell surface, even with the trkB receptor. Then, using an anti-pan-trk receptor antibody, a sandwich immunoassay was tried in order to determine the BDNF combined with a trk B receptor on the cell surface."}, "[2]": {"conditions": "compared with other NO donors (Reference e5); cited from earlier work"}, "BDNF protein": {"system": "BDNF protein", "test": "BDNF protein in the cells by EIA", "format": "cell-based, rat", "conditions": "for BDNF protein in the cells: FIG. 2C", "procedure": "(§1) The following experiment was done in order to confirm the NO production by neural cells, and to clarify which isozyme of three nitric oxide synthase isozymes (References el and e2) (neuronal type; nNOS, endothelial type; eNOS and inducible type; iNOS) is involved with the NO production, The cultured neural cells were prepared by using the neural cells from the cerebral neocortex of rat embryo (E18), and culturing thereof in a serum free medium for 7 days (Reference e3). The supernatant of the culture medium was collected, and the concentration of nitrite was determined, which was used as an index for the total amount of NO production (FIG. 1A). The concentration of nitrite was determined by Griess' method (Reference e4). During the cultivation, the accumulation of nitrite in the supernatant was increased. The expression of NOS in the cultured cells was detected by Western blotting (FIG. 1B). The protein extracted from the cultured cells being electrophoresed on a nitrocellulose membrane was detected by labeling it with 3 anti-NOS antibodies (Transduction Lab., 1/500 to 1000 dilution), treating with peroxidase-labeled anti-IgG antibody, and visualizing by chemical luminescence reaction (ECL kit by Amersham Pharmacia Biotech). In the cultured neural cell sample, the nNOS-like immunoreaction was detected, but eNOS immunoreaction was hardly detected, and further INOS immunoreaction was not detected at all. The product by nNOS immunoreaction as mentioned above has a molecular weight of about 160 kD, which is coincident with that of nNOS as reported in literatures. […]\n(§2) From the finding that the inhibition of NO synthesis in the cultured brain neural cells increased the expression of BDNF gene, it was clarified that endogenous NO affect the regulation of BDNF gene expression. […] SNAP was added to the culture system at various concentrations, and 3 hours and 5 hours thereafter, the BDNF MRNA was determined by quantitative RT-PCR, and the BDNF protein in the cells was determined by EIA, in the same manner as in Example 2."}, "[3]": {"system": "cultured neural cells from the cerebral neocortex of rat embryo (E18)", "test": "NO production (nitrite, Griess' method) in the cultured neural cells", "format": "cell-based", "conditions": "3 hours and 5 hours after addition, FIG. 2A", "procedure": "as §1, with “During the cultivation, the accumulation of nitrite in the supernatant was increased.” left out, “all.” for “all. The product by nNOS immunoreaction as mentioned above has a molecular weight of about 160 kD, which is coincident with that of nNOS as reported in literatures.”"}, "BDNF mRNA": {"system": "BDNF mRNA", "test": "BDNF mRNA by quantitative RT-PCR in cultured brain neural cells", "format": "cell-based, rat", "procedure": "as §1, §2"}, "[4]": {"conditions": "cited from earlier work; for serious side effects: oral administration to human, estimated"}, "[5]": {"conditions": "rats, cited from earlier work"}}, "note": "Like-named read-outs stand apart in the source and are kept apart here.", "data": [{"compound": "CC(=O)NC(C(=O)O)C(C)(C)SN=O", "note": "(racemic) [SNAP, S-nitroso-N-acetyl-DL-penicillamine]", "values": [{"measurement": "growth of cells", "setting": "[1]", "result": "no change in the growth of cells"}, {"measurement": "amount of the BDNF-trkB complex", "setting": "BDNF-trkB complex; dose of 100 μM or more", "result": "significantly increased"}, {"measurement": "cytotoxicity", "setting": "[2]", "result": "weaker than that of other NO donors"}, {"measurement": "BDNF protein in the cells", "setting": "BDNF protein; higher dose than 30 μM", "result": "dose-dependent decrease"}, {"measurement": "BDNF protein in the cells", "setting": "BDNF protein; only at 30 μM", "result": "increased"}, {"measurement": "NO release from the NO donor (nitrite)", "setting": "[3]", "result": "NO was released from the NO donor"}, {"measurement": "expression of BDNF gene", "setting": "BDNF mRNA; lower dose (30 to 300 μM), FIG. 2B", "result": "increased dose-dependently"}, {"measurement": "expression of BDNF mRNA", "setting": "BDNF mRNA; quite high dose (1000 μM), FIG. 2B", "result": "inhibited"}]}, {"compound": "O=[N+]([O-])O[C@H]1CO[C@H]2[C@@H]1OC[C@H]2O[N+](=O)[O-]", "note": "[ISDN, isosorbide dinitrate]", "values": [{"measurement": "serious side effects", "setting": "[4]; dose up to dozens mg per day", "result": "does not show serious side effects"}]}, {"compound": "O=[N+]([O-])O[C@@H]1CO[C@H]2[C@@H]1OC[C@@H]2O", "note": "[ISMN, isosorbide mononitrate]", "values": [{"measurement": "LD50", "setting": "[5]; i.v.", "result": 40, "unit": "mg/kg"}, {"measurement": "LD50", "setting": "[5]; p.o.", "result": "1050 to 1550", "unit": "mg/kg"}]}, {"compound": "COCC(/C(C)=C/C(=N/O)C(N)=O)[N+](=O)[O-]", "note": "(stereo not shown) [NOR1]", "values": [{"measurement": "expression of BDNF gene", "setting": "BDNF mRNA; dose not given", "result": "exhibited the same promoting activity"}]}, {"compound": "O=[N+]([O-])OCC(CO[N+](=O)[O-])O[N+](=O)[O-]", "note": "[NTG, nitroglycerin]", "values": [{"measurement": "serious side effects", "setting": "[4]; dose up to several mg per day", "result": "does not show serious side effects"}]}, {"compound": "N=C(N)NCCC[C@H](N)C(=O)O", "note": "[arginine]", "values": [{"measurement": "toxicity", "setting": "[4]; up to 20 g per day of arginine glutamate by intravenous drip", "result": "quite low"}]}, {"compound": "N[C@@H](CCC(=O)O)C(=O)O", "note": "[glutamic acid]", "values": [{"measurement": "BDNF secretion promoting activity", "setting": "BDNF-trkB complex", "result": "did not show a distinguished BDNF secretion promoting activity"}, {"measurement": "BDNF synthesis promoting activity", "setting": "BDNF protein", "result": "potent BDNF synthesis promoting activity"}]}]}
